Values of other authors in patent US9044449B2, “X-ray contrast media compositions and methods of using the same to treat, reduce or delay the onset of CNS inflammation and inflammation associated conditions” (3E THERAPEUTICS CORPORATION, priority 2011, dated 2015).
Residues, ends and D or L forms follow the SMILES beside them.

What was measured:
TNF-alpha = details: in vitro
[1] = test system: allergen induced nasal obstruction; details: used as a nasal spray, in vivo
mast cell degranulation = details: in vitro; immunological and non-immunological stimuli
[2] = molecular target: angiotensin converting enzyme (ACE) (Homo sapiens, UniProt P12821); details: in vitro; FIG. 2 reproduced from Lasser et al. 1990
angiotensin converting enzyme (ACE), sequence (P12821 30-1306, species assumed): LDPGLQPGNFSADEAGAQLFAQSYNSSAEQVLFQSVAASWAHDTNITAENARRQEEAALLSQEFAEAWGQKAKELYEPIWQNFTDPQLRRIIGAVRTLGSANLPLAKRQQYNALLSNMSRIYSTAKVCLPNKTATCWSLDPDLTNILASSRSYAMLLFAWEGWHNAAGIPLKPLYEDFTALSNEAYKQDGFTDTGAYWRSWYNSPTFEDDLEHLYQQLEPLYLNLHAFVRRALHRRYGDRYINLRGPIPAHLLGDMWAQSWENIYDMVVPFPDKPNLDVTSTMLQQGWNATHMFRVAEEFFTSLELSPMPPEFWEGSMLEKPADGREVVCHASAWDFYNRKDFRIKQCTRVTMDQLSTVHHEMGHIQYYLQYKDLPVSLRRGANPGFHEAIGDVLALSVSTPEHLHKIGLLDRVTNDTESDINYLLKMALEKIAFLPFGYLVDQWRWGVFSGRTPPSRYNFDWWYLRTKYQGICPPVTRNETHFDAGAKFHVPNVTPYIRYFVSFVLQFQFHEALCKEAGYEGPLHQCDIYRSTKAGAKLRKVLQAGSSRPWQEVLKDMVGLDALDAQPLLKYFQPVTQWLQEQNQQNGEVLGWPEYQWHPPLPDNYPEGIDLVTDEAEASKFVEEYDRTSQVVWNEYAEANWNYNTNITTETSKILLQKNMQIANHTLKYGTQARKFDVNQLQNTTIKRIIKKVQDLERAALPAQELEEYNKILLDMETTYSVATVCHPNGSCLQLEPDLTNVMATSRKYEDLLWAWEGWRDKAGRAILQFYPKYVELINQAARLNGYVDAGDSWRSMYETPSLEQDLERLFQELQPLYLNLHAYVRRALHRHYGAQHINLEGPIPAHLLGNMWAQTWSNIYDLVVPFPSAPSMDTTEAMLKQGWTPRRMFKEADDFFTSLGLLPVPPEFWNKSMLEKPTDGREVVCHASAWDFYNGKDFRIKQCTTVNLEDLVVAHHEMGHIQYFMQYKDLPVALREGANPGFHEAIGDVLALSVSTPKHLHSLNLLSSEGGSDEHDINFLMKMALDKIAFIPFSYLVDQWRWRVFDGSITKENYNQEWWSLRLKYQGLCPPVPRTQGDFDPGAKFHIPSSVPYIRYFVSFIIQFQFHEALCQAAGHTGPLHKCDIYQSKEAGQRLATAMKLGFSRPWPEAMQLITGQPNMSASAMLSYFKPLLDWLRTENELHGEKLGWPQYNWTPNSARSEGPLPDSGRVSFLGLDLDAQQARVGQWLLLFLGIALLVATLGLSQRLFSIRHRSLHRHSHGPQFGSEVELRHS

O=C(O)c1cc(=O)c2c(OCC(O)COc3cccc4oc(C(=O)O)cc(=O)c34)cccc2o1 [Sodium cromoglycate]
inhibition of TNF-alpha (TNF-alpha): inhibited TNF-alpha in vitro

CC(=O)N[C@@H](CC(=O)[O-])C(=O)N[C@@H](CCC(=O)[O-])C(=O)O.[Mg+2] [magnesium salt of n-acetyl aspartyl glutamic acid] (Ac-Asp-Glu-OH)
effect on allergen induced nasal obstruction [1]: reduce allergen induced nasal obstruction
inhibition of mast cell degranulation (mast cell degranulation): inhibit mast cell degranulation

CCCc1c2oc(C(=O)[O-])cc(=O)c2cc2c(=O)cc(C(=O)[O-])n(CC)c12.[Na+].[Na+] [nedocrimal sodium]
inhibition of TNF-alpha (TNF-alpha): inhibited TNF-alpha in vitro

C[C@H](O)C(=O)Nc1c(I)c(C(=O)NC(CO)CO)c(I)c(C(=O)NC(CO)CO)c1I [purified iopamidol, iopamidol]
inhibition of ACE compared with commercial iopamidol (contains chelator) [2]: diminishes the inhibition ACE significantly
